Source: ChEMBL document CHEMBL1201862, “PubChem BioAssay data set” (2004)
Active and inactive are the calls of the source.

What was measured:
[1] = target: Diphosphomevalonate decarboxylase (Streptococcus pneumoniae serotype 2 (strain D39 / NCTC 7466), UniProt Q9FD53); experiment: diphosphomevalonate decarboxylase inhibitor confirmation – biochemical, cuvette format, coupled NADH fluorescence (AID 1028); assay type: functional
Aminopeptidase N = target: T1, Aminopeptidase N (Plasmodium falciparum FcB1/Columbia, UniProt O96935); experiment: malaria alanyl aminopeptidase activity blockers – biochemical, fluorogenic H-Leu-NHMec substrate, 1536-well (AID 1445); set-up: species or system Plasmodium falciparum 3D7, 3D7
T1 sequence (O96935 whole entry): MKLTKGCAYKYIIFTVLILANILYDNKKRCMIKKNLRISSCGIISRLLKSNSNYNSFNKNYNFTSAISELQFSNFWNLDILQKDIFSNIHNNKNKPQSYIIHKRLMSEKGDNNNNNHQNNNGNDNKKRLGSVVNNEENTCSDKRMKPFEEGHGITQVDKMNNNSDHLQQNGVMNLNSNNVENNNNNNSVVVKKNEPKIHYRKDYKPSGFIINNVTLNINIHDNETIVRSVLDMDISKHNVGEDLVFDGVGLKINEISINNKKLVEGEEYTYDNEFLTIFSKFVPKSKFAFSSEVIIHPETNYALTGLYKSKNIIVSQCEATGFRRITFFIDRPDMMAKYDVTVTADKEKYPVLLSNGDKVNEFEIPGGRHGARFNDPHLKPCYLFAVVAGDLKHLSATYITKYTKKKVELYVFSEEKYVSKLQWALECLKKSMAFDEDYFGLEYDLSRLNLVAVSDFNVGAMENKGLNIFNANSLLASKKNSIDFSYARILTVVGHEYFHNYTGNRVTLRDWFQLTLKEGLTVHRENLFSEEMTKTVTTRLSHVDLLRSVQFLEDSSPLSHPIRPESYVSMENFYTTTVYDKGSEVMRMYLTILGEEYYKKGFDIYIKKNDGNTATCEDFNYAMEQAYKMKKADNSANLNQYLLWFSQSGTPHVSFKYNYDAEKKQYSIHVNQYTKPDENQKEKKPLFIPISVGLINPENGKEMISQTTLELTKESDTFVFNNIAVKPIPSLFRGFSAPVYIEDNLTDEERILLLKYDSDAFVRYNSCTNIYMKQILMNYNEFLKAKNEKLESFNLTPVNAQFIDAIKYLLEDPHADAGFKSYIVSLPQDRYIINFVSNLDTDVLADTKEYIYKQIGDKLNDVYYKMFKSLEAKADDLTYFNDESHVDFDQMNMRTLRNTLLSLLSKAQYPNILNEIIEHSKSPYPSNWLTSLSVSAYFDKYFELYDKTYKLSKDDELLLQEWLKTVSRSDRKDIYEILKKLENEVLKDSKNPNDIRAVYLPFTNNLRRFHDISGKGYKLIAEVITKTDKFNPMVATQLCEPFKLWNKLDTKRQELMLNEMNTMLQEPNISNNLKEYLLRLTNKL

[2] = target: Bifunctional protein GlmU (Mycobacterium tuberculosis, UniProt P9WMN3); experiment: Inhibitors of Mycobacterial Glucosamine-1-phosphate acetyl transferase (GlmU). Secondary screen.; set-up: species or system Mycobacterium tuberculosis H37Rv
[3] = target: T2, Replicative DNA helicase DnaB (Mycobacterium tuberculosis, UniProt P9WMR3); experiment: DnaB intein splicing inhibitors, dose response, biochemical, cell-free fluorescence (AID 449749); assay type: functional
T2 sequence (P9WMR3 whole entry): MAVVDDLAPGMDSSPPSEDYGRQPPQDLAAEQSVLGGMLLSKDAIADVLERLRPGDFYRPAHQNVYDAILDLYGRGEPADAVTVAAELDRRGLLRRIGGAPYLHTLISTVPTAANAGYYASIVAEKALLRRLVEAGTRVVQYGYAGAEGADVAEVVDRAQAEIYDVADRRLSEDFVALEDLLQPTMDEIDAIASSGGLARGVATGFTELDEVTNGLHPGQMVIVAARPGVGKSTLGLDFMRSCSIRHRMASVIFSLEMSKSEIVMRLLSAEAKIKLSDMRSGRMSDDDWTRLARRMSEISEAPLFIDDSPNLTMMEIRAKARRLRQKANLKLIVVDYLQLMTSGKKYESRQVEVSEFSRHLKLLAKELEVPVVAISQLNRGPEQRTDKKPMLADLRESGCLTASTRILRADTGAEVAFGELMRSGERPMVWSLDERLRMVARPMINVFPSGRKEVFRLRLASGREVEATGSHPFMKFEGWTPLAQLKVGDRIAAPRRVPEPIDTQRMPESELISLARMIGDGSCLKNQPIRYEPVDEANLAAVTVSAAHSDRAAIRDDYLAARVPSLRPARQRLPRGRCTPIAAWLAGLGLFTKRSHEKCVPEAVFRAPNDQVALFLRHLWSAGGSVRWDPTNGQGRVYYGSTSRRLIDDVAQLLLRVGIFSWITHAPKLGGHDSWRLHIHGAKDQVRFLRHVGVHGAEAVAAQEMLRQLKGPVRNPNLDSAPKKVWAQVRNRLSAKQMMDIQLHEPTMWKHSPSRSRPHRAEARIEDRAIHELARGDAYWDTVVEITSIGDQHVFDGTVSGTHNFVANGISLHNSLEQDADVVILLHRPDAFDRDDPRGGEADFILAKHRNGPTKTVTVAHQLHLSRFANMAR

Protein RecA = target: T3, Protein RecA (Mycobacterium tuberculosis, UniProt P9WHJ3); experiment: Fluorescence Cell-Free Homogeneous Dose Retest to Identify Inhibitors of RecA-Intein Splicing Activity. [Related pubchem assays (depositor defined):AID2097, AID2223, AID489010, AID492950]; assay type: functional
T3 sequence (P9WHJ3 whole entry): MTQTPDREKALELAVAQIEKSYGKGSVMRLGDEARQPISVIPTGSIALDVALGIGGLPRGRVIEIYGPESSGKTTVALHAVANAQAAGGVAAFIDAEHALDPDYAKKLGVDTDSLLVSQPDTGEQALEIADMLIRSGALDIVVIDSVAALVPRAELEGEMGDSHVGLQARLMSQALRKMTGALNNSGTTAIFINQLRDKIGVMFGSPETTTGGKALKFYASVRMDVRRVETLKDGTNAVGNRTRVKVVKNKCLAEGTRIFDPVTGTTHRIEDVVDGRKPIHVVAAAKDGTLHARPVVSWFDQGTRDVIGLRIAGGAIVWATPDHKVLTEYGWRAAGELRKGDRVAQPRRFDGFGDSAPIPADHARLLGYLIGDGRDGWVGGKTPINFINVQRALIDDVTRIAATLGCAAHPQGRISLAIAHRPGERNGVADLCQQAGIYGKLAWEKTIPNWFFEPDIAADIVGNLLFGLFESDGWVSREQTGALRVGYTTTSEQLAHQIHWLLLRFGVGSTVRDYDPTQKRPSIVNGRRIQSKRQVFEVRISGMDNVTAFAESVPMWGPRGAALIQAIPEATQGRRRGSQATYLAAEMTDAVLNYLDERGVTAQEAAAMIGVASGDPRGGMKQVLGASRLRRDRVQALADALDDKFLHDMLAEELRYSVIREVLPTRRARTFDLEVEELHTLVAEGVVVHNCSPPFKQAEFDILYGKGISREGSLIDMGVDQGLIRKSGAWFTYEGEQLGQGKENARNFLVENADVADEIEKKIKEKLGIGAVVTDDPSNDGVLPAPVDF

Genome polyprotein = Genome polyprotein (dengue virus type 2, UniProt P29990); experiment: flavivirus cap methylation enzyme inhibition – biochemical, confirmation dose response, primary screen (AID 588689); assay type: functional
[4] = target: Peroxisome proliferator-activated receptor gamma/Nuclear receptor coactivator 1 (Homo sapiens, UniProt P37231); experiment: (§1) TR-FRET dose response biochemical High Throughput Screening assay for agonists of the steroid receptor coactivator 1 (SRC-1) recruitment by the peroxisome proliferator-activated receptor gamma (PPAR gamma): non-selective agonists. [Related pubchem assays (depositor defined):AID1300, AID1808, AID504735, AID631]; assay type: protein assay
[5] = target: Peroxisome proliferator-activated receptor gamma/Nuclear receptor coactivator 3 (Homo sapiens, UniProt P37231); experiment: as §1, with “3 (SRC-3)” for “1 (SRC-1)”, “assays: 1301 (Confirmation screen.), 1048 (Primary screen.)]” for “assays (depositor defined):AID1300, AID1808, AID504735, AID631]”; assay type: functional
[6] = target: Peroxisome proliferator-activated receptor gamma/Nuclear receptor coactivator 2 (Homo sapiens, UniProt P37231); experiment: TR-FRET dose response biochemical High Throughput Screening assay for agonists of the steroid receptor coactivator 2 (SRC-2) recruitment by the peroxisome proliferator-activated receptor gamma (PPAR gamma): non-selective agonists. [Related pubchem assays: 1297, 1032 ]; assay type: functional
[7] = target: Mitogen-activated protein kinase 10 (Homo sapiens, UniProt P53779); experiment: Dose response biochemical screening assay for inhibitors of c-Jun N-Terminal Kinase 3 (JNK3). [Related pubchem assays: 746 ]
[8] = target: T4, RNA-binding protein pos-1 (Caenorhabditis elegans, UniProt G5EF15); experiment: disruptors of C. elegans POS-1 RNA interaction – biochemical, fluorescence polarization, dose response (AID 1964);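 further: purified POS-1 fused to maltose binding protein made in E. coli; potency of compounds blocking POS-1 binding to fluorescent RNA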
T4 sequence (G5EF15 whole entry): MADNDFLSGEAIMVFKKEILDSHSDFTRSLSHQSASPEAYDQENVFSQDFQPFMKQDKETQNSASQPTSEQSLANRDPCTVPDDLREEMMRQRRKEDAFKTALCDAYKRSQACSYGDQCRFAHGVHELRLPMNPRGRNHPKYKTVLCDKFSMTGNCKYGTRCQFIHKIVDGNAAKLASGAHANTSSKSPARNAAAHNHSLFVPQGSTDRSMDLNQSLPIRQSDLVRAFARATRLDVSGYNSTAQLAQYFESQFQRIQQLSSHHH

[9] = target: Tyrosine-protein phosphatase non-receptor type 7 (Homo sapiens, UniProt P35236); experiment: HePTP tyrosine phosphatase activity blockers – biochemical, absorbance, leukemia target, primary screen (AID 521); assay type: functional
[10] = target: T5, Zinc finger protein mex-5 (Caenorhabditis elegans, UniProt Q9XUB2); experiment: potency of MEX-5 RNA-binding blockers – biochemical, C. elegans, fluorescence polarization, dose response (AID 1960)
T5 sequence (Q9XUB2 whole entry): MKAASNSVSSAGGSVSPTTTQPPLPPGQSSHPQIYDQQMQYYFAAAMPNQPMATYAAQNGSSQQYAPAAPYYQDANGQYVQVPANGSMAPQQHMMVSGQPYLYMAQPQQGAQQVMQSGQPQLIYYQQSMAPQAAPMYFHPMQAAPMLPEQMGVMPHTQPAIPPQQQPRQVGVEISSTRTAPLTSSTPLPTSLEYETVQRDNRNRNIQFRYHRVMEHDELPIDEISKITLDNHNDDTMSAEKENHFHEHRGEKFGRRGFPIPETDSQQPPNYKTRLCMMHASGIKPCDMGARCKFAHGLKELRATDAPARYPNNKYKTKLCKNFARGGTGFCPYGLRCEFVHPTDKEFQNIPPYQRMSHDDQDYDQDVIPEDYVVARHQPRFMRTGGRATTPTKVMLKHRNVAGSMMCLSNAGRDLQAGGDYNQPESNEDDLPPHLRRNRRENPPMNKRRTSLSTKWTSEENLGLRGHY

Estrogen receptor = target: T6, Estrogen receptor (Homo sapiens, UniProt P03372);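 further: potency for inhibiting coactivator peptide recruitment to the receptor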
T6 sequence (P03372 whole entry): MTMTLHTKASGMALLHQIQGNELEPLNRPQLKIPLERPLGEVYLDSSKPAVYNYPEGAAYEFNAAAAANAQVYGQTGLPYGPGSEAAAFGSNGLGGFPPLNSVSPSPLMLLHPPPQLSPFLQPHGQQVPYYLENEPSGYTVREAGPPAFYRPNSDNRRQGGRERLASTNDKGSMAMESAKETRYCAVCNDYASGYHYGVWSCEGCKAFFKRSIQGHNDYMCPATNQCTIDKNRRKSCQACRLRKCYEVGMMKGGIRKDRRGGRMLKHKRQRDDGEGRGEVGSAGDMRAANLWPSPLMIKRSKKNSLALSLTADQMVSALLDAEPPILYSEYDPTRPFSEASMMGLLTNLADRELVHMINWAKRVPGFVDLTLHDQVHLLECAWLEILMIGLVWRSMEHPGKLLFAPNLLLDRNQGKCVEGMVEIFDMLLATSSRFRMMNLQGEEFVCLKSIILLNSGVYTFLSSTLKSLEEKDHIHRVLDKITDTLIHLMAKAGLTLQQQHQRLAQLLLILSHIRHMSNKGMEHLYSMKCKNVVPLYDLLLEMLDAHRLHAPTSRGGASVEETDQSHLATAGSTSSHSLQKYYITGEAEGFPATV

NS3 = NS3 (Hepatitis C virus, UniProt A3EZJ3); experiment: NS3h DNA-binding inhibition IC50 – biochemical, fluorescence polarization, ChemBridge library, dose response (AID 743264)
NS3, sequence (A3EZJ3 whole entry): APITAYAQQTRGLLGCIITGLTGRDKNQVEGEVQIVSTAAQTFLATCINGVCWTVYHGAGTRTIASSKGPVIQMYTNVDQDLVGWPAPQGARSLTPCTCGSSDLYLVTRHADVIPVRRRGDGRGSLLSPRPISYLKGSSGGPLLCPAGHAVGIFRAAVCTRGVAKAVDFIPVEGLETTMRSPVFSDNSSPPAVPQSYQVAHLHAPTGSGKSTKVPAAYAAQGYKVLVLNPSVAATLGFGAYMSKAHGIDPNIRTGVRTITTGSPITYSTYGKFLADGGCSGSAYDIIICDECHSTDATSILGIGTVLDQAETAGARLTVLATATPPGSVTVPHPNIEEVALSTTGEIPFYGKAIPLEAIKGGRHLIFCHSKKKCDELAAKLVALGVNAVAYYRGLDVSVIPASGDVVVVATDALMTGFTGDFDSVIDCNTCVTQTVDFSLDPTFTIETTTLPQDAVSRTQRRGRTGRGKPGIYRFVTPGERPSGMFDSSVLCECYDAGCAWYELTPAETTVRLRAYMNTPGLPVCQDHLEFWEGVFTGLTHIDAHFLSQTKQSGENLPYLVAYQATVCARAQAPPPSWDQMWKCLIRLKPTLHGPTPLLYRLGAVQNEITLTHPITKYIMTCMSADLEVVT

Mitogen-activated protein kinase 10, sequence (P53779 whole entry, the tested form may be a part): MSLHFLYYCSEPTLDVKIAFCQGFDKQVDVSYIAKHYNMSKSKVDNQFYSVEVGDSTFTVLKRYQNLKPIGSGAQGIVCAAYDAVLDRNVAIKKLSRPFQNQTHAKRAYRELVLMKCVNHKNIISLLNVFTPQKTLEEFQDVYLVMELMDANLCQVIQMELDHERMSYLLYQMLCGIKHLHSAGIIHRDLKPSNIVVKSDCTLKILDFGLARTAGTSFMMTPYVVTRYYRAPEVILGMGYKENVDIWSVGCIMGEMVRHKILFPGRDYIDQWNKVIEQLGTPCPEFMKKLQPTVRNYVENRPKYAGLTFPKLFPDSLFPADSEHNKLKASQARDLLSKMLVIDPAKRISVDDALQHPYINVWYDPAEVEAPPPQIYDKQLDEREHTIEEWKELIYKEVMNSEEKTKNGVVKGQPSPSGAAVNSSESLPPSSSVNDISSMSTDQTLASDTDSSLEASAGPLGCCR
Genome polyprotein, sequence (P29990 2492-3391 limits assumed): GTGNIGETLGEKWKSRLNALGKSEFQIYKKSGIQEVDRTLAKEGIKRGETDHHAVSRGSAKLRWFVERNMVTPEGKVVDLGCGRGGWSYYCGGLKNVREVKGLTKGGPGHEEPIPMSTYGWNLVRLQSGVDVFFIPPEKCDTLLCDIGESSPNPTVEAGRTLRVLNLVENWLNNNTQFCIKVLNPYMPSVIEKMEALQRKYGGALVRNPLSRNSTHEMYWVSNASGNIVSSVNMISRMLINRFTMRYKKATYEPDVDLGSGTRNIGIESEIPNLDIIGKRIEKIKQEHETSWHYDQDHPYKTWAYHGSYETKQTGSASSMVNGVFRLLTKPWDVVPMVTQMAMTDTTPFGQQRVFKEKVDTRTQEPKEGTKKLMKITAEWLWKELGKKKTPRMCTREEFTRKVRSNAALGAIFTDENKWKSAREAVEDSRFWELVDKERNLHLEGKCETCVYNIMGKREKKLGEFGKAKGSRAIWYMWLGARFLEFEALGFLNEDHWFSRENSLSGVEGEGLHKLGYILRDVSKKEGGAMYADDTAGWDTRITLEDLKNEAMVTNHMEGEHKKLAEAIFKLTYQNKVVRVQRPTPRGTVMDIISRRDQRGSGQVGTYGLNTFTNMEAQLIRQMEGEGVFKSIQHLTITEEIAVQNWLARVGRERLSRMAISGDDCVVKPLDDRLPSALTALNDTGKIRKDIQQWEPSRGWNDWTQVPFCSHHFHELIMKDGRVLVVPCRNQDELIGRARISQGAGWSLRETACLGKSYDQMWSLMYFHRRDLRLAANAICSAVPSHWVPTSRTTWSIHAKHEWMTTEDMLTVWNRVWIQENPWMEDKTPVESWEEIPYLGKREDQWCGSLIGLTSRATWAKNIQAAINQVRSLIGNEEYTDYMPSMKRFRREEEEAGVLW
Bifunctional protein GlmU, sequence (P9WMN3 whole entry): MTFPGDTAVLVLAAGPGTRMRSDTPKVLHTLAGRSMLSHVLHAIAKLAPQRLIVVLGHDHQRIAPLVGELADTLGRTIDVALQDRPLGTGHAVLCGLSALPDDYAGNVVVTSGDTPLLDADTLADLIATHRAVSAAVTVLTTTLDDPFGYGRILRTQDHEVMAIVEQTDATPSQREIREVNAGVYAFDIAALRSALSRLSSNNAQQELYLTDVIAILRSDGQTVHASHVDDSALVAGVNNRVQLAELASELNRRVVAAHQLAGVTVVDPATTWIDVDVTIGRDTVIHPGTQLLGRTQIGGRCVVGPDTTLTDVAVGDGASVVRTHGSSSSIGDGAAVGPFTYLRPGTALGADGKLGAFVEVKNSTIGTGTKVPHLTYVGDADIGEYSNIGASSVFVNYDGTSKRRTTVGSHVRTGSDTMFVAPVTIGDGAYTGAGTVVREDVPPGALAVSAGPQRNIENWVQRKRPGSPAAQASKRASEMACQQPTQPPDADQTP
Diphosphomevalonate decarboxylase, sequence (Q9FD53 whole entry): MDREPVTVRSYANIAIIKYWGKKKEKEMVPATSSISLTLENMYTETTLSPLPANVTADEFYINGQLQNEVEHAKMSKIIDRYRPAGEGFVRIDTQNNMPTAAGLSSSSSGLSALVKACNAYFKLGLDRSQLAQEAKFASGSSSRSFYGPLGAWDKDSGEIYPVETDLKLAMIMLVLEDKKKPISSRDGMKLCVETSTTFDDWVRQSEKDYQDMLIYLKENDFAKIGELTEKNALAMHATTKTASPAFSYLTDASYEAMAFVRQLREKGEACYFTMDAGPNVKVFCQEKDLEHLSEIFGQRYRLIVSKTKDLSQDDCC
Peroxisome proliferator-activated receptor gamma/Nuclear receptor coactivator 2, sequence (P37231 whole entry): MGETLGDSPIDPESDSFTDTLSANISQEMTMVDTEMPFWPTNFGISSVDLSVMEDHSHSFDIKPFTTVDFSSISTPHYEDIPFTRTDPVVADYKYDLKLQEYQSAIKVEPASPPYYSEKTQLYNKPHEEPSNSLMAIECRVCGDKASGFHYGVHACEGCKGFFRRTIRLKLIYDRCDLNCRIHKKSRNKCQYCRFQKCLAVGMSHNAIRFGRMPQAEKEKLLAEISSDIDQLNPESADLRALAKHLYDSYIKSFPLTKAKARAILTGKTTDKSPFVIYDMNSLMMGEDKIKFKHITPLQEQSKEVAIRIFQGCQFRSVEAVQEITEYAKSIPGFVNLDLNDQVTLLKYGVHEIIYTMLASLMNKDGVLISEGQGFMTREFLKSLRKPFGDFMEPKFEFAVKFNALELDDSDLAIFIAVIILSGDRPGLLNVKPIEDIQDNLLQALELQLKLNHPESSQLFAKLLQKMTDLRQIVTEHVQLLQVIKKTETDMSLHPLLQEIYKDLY
Peroxisome proliferator-activated receptor gamma/Nuclear receptor coactivator 2, sequence (Q15596 whole entry, further chain): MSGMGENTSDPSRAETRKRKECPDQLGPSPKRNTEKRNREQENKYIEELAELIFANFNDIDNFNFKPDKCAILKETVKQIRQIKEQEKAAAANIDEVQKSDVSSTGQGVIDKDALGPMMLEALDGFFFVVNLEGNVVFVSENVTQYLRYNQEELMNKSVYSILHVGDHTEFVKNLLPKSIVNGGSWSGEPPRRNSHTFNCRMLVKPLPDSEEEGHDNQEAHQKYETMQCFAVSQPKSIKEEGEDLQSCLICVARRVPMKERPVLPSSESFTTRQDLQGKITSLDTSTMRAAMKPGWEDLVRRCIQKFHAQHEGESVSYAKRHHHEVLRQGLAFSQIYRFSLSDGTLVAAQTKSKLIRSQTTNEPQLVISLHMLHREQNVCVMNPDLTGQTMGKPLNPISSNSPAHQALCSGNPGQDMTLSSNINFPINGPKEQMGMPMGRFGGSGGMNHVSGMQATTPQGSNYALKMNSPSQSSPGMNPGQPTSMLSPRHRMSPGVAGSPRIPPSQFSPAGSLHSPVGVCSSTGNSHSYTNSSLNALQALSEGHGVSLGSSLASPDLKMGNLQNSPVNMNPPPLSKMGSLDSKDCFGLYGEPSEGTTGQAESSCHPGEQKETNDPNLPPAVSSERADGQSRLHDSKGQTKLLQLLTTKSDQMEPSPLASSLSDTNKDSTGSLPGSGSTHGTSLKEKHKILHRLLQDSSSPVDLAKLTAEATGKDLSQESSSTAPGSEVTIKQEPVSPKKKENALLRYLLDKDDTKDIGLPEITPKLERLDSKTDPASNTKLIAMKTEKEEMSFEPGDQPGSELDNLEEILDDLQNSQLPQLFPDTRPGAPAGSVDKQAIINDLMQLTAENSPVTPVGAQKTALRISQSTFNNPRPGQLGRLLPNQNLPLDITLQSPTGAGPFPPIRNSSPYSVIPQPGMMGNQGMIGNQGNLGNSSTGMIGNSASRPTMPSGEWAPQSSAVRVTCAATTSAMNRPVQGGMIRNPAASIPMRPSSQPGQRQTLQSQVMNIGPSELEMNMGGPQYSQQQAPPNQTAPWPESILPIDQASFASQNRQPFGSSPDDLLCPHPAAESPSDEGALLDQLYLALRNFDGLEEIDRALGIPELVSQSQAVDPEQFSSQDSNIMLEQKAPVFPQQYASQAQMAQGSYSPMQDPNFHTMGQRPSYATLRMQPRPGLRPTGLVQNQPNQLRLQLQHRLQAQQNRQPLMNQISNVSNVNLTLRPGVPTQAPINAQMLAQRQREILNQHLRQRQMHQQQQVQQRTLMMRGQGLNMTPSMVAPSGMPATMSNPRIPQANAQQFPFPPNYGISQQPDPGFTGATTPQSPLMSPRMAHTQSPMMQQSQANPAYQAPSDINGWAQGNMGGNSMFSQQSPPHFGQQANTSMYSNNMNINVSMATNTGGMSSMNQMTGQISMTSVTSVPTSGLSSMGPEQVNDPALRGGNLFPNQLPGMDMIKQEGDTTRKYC

In the case of `O=C(c1ccc(-n2sc3ccccc3c2=O)cc1)N1CCCC1`, the IC50 [1] is reported as 8.66 µM (active).

In the case of `CC1=NN(c2ccc(Cl)c(C(=O)O)c2)C(=O)/C1=C\c1ccc(-c2ccc(C(=O)O)cc2)o1`, the IC50 (Aminopeptidase N) is reported as 2.41 µM (active), the IC50 [2] is reported as 94.1 µM (active) and the AC50 [3] is reported as 0.484 µM (active). The EC50 (Protein RecA) was 0.4 µM (active) and the IC50 (Genome polyprotein) was 19.4 µM (active).

`CC(=O)c1sc(Nc2ccccn2)nc1C` was tested, and the EC50 [4] was > 79.4 µM (inactive), the EC50 [5] was > 79.4 µM (not active) and the EC50 [6] was > 79.4 µM (not active). For the same molecule, the IC50 [7] was 40.3 µM (not active).

In the case of `Cc1cc(C(=O)O)ccc1-n1c(C)ccc1C`, the EC50 [8] is reported as 5.94 µM (active), the IC50 [9] is reported as 0.76 µM (active) and the EC50 [10] is reported as 8.59 µM (active). The IC50 (Estrogen receptor) was 7.53 µM (active) and the IC50 (NS3) was 6.25 µM (inactive).
